Results on one compound are retold here after patent US20190030018A1 (Celgene Corporation, priority 2017, published 2019).

The test system of data set [1] is GSPT1, Mcl-1, Bcl-2, cleaved caspase 3 in KG-1 cells. In words: KG-1 western blots, 16 h. The format is cell-based. The procedure: KG-1 cells were seeded in 6 well tissue culture plates at 500,000 cells per mL, 4 mL per well. […] Cells were then washed twice with cold PBS and lysed with M-PER lysis buffer (Thermo) supplemented with 150 mM NaCl and Halt protease and phosphatase inhibitor cocktail (Thermo) on ice for 30 min. Crude lysates were clarified by centrifugation (14000 rpm, 10 min, 4° C.) and total protein quantified by BCA assay. GSPT1 (Abcam, ab49878), Mcl-1 (CST, 4572), Bcl-2 (CST, 4223), cleaved caspase 3 (CST, 9664), and GAPDH (Santa Cruz, sc-47724) levels were probed by western and imaged on a LiCor infrared imager.
A general note: In western blotting, separated proteins are transferred to a membrane and probed.

The test system of data set [2] is GSPT1 and mTORC1 effectors in BON cells. In words: Western blot of BON cell lysates after 120 h treatment. The format is cell-based. The procedure:
BON cells were cultured in DMEM: F12K media containing 10% fetal bovine serum and penicillin/streptomycin antibiotics. […] Cells were harvested and probed with antibodies for western blots and imaged using a Li-Cor Odyssey imaging system. All total and phosphorylated antibodies were obtained from Cell Signaling Technology.

Data set [3] can be described thus: Solubility of Compound 1 in Kleptose solutions ('top-down' approach). The class given is physicochemical. The conditions noted are these: formic acid 1.65 mg/mL. The procedure:
The Kleptose concentration varied from 30 to 100 mg/mL.

Take `O=C1CCC(N2Cc3cc(CNC(=O)C(F)(F)c4ccc(Cl)cc4)ccc3C2=O)C(=O)N1` (stereo not drawn) [Compound 1, 2-(4-chlorophenyl)-N-((2-(2,6-dioxopiperidin-3-yl)-1-oxoisoindolin-5-yl)methyl)-2,2-difluoroacetamide]: the Mcl-1 levels entry in data set [1] is given as “reduce levels of Mcl-1”. Besides, in data set [2], the GSPT1 degradation entry is “dose dependent GSPT1 degradation”. In addition, the “effect on mTORC1 effectors (p4EBP1, phosphorylation of S6)” value in data set [2] was “no direct effect”. The “Assay at t = 0” value in data set [3] (Kleptose 30 mg/mL) was determined as 0.114 mg/mL; in data set [3] (Kleptose 60 mg/mL) it was 0.115 mg/mL; in data set [3] (Kleptose 70 mg/mL) it was 0.115 mg/mL; in data set [3] (Kleptose 80 mg/mL), 0.116 mg/mL; in data set [3] (Kleptose 90 mg/mL) it was 0.116 mg/mL; in data set [3] (Kleptose 100 mg/mL), 0.117 mg/mL. The “Assay at t = 4 wks without Compound 1 crystal at 25° C.” value is recorded as 0.036 mg/mL in data set [3] (Kleptose 30 mg/mL); 0.114 mg/mL in data set [3] (Kleptose 60 mg/mL); 0.114 mg/mL in data set [3] (Kleptose 70 mg/mL); 0.114 mg/mL in data set [3] (Kleptose 80 mg/mL); 0.115 mg/mL in data set [3] (Kleptose 90 mg/mL); 0.115 mg/mL in data set [3] (Kleptose 100 mg/mL). The “Assay at t = 9 days with Compound 1 crystal at 25° C.” value came out at 0.036 mg/mL in data set [3] (Kleptose 30 mg/mL); 0.065 mg/mL in data set [3] (Kleptose 60 mg/mL); 0.077 mg/mL in data set [3] (Kleptose 70 mg/mL); 0.103 mg/mL in data set [3] (Kleptose 80 mg/mL); 0.114 mg/mL in data set [3] (Kleptose 90 mg/mL); 0.117 mg/mL in data set [3] (Kleptose 100 mg/mL).
